Assay results reported in patent publication US9487513B2, “Substituted pyrazolo[1,5-A]pyridines, their preparation and use as medicaments” (LABORATORIOS DEL DR. ESTEVE S.A., priority 2012, dated 2016).
Where a name gives a salt, the structure may show the parent alone.

The molecules below were run against T1, σ1-receptor (Cavia porcellus, UniProt Q60492) (assay: σ1-receptor binding assay, [3H]-(+)-pentazocine, guinea pig brain membranes). Details: radioligand [3H]-(+)-pentazocine at 5.0 nM; guinea pig brain membrane; 150 min at 37° C.; nonspecific binding with 1 μM haloperidol.
T1 construct: Guinea pig brains were homogenized in 10 vols; (w/v) of Tris-HCl 50 mM 0.32 M sucrose; from tissue; host or cells: guinea pig brain membranes
Description: Brain membrane preparation and binding assays for the σ1-receptor were performed as described (DeHaven-Hudkins, D. L., L. C. Fleissner, and F. Y. Ford-Rice, 1992, Characterization of the binding of [^3H](+)pentazocine to σ recognition sites in guinea pig brain, Eur. J. Pharmacol. 227, 371-378) with some modifications. Guinea pig brains were homogenized in 10 vols. (w/v) of Tris-HCl 50 mM 0.32 M sucrose, pH 7.4, with a Kinematica Polytron PT 3000 at 15000 r.p.m. for 30 s. The homogenate was centrifuged at 1000 g for 10 min at 4° C. and the supernatants collected and centrifuged again at 48000 g for 15 min at 4° C. The pellet was resuspended in 10 volumes of Tris-HCl buffer (50 mM, pH 7.4), incubated at 37° C. for 30 min, and centrifuged at 48000 g for 20 min at 4° C. Following this, the pellet was re-suspended in fresh Tris-HCl buffer (50 mM, pH 7.4) and stored on ice until use.
The radioligand used was [^3H]-(+)-pentazocine at 5.0 nM and the final volume was 200 μl. The incubation was initiated with the addition of 100 μl of membrane at a final tissue concentration of approximately 5 mg tissue net weight/mL and the incubation time was 150 m. at 37° C. After incubation, the membranes were collected onto pretreated glass fiber filterplate (MultiScreen-FC, Millipore), with polyethylenimine 0.1%. The filters were washed two times with 200 μl of washing buffer (50 mM Tris Cl, pH=7.4) and then 25 μl of Ecoscint H liquid scintillation cocktail were added. Microplates were allowed to set for several hours and then quantified by liquid scintillation spectrophotometry (1450 Microbeta, Wallac). Nonspecific binding was determined with 1 μM haloperidol.

T1 sequence (Q60492 whole entry): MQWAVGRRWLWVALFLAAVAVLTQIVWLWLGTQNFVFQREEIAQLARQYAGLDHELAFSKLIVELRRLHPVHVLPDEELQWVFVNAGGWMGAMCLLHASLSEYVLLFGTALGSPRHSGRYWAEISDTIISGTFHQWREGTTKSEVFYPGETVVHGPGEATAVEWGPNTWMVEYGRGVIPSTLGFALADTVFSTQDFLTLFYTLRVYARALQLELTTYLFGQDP

Row | SMILES | Ki
1 | CC(C)(C)C1CCN(CCCCOCc2cc3ccccn3n2)CC1 [Example 1, 2-((4-(4-tert-butylpiperidin-1-yl)butoxy)methyl)pyrazolo[1,5-a]pyridine maleate] | 0.0163 µM
2 | c1ccn2nc(COCCN3CCCCCC3)cc2c1 [Example 2, 2-((2-(azepan-1-yl)ethoxy)methyl)pyrazolo[1,5-a]pyridine maleate] | 0.0376 µM
3 | CCCN(CCCCOCc1cc2ccccn2n1)CC1CC1 [Example 3, N-(cyclopropylmethyl)-N-propyl-4-(pyrazolo[1,5-a]pyridin-2-ylmethylpyrazolo[1,5-a]pyridin-2-ylmethoxy)butan-1-amine maleate] | 0.0901 µM
4 | c1ccc2c(c1)CCN(CCCCOCc1cc3ccccn3n1)C2 [Example 4, maleate] | 0.048 µM
5 | c1ccn2nc(COCCCCNC34CC5CC(CC(C5)C3)C4)cc2c1 [Example 5, N-adamantyl-4-(pyrazolo[1,5-a]pyridin-2-ylmethylpyrazolo[1,5-a]pyridin-2-ylmethoxy)butan-1-amine maleate] | 0.0423 µM
6 | c1ccc2c(c1)COC21CCN(CCCCOCc2cc3ccccn3n2)CC1 [Example 6, 1′-(4-(pyrazolo[l,5-a]pyridin-2-ylmethylpyrazolo[1,5-a]pyridin-2-ylmethoxy)butyl)-3H-spiro[isobenzofuran-1,4′-piperidine] maleate] | 0.0233 µM
7 | c1ccn2nc(COCCCCN3CCCCCC3)cc2c1 [Example 8, 2-((4-(azepan-1-yl)butoxy)methyl)pyrazolo[1,5-a]pyridine maleate] | 0.0222 µM
8 | c1ccn2nc(COCCCCN3CCN(C4CCCCC4)CC3)cc2c1 [Example 10, 2-((4-(4-cyclohexylpiperazin-1-yl)butoxy)methyl)pyrazolo[1,5-a]pyridine maleate] | 0.0754 µM
9 | CN(CCCCOc1cc2ccccn2n1)C1CCN(Cc2ccccc2)CC1 [Example 12, 1-benzyl-N-methyl-N-(4-(pyrazolo[1,5-a]pyridin-2-yloxy)butyl)piperidin-4-amine difumarate] | 0.0195 µM
10 | c1ccn2nc(OCCCCN3CCOCC3)cc2c1 [Example 17, 4-(4-(pyrazolo[1,5-a]pyridin-2-yloxy)butyl)morpholine oxalate] | 0.118 µM
11 | c1ccn2nc(OCCCCN3CCCCC3)cc2c1 [Example 18, 2-(4-(piperidin-1-yl)butoxy)pyrazolo[1,5-a]pyridine oxalate] | 0.0147 µM
12 | CCN(CC)CCCCOc1cc2ccccn2n1 [Example 19, N,N-diethyl-4-(pyrazolo[1,5-a]pyridin-2-yloxy)butan-1-amine oxalate] | 0.0749 µM
13 | c1ccn2nc(OCCCCN3CCCC3)cc2c1 [Example 20, 2-(4-(pyrrolidin-1-yl)butoxy)pyrazolo[1,5-a]pyridine oxalate] | 0.0507 µM
14 | c1ccc(C2CCN(CCCCOc3cc4ccccn4n3)CC2)cc1 [Example 21, 2-(4-(4-phenylpiperidin-1-yl)butoxy)pyrazolo[1,5-a]pyridine oxalate] | 0.0038 µM
15 | CN(CCCCOc1cc2ccccn2n1)Cc1ccccc1 [Example 22, N-benzyl-N-methyl-4-(pyrazolo[1,5-a]pyridin-2-yloxy)butan-1-amine oxalate] | 0.0036 µM
16 | c1ccc(OC2CCN(CCCCOc3cc4ccccn4n3)CC2)cc1 [Example 23, 2,(4-(4-phenoxypiperidin-1-yl)butoxy)pyrazolo[1,5-a]pyridine oxalate] | 0.0301 µM
17 | CN(CCOc1cc2ccccn2n1)Cc1ccccc1 [Example 24, N-benzyl-N-methyl-2-(pyrazolo[1,5-a]pyridin-2-yloxy)ethanamine oxalate] | 0.0045 µM
18 | c1ccc(N2CCN(CCCCOc3cc4ccccn4n3)CC2)cc1 [Example 25, 2-(4-(4-phenylpiperazin-1-yl)butoxy)pyrazolo[1,5-a]pyridine oxalate] | 0.0196 µM

Row | SMILES | Ki
19 | c1ccc2cc(C3CCN(CCCCOc4cc5ccccn5n4)CC3)ccc2c1 [Example 26, 2-(4-(4-(naphthalen-2-yl)piperidin-1-yl)butoxy)pyrazolo[1,5-a]pyridine] | 0.011 µM
20 | c1ccc2c(c1)COC21CCN(CCCCOc2cc3ccccn3n2)CC1 [Example 27, 1′-(4-(pyrazolo[1,5-a]pyridin-2-yloxy)butyl)-3H-spiro[isobenzofuran-1,4′-piperidine] oxalate] | 0.0091 µM
21 | c1ccn2nc(OCCCCN3CCN(C4CCCCC4)CC3)cc2c1 [Example 28, 2-(4-(4-cyclohexylpiperazin-1-yl)butoxy)pyrazolo[1,5-a]pyridine] | 0.0199 µM
22 | c1ccn2nc(OCCCCN3CCN(C4CCCCC4)CC3)cc2c1 [Example 29, 2-(4-(4-cyclohexylpiperazin-1-yl)butoxy)pyrazolo[1,5-a]pyridine dimaleate] | 0.0113 µM
23 | CC(C)(C)C1CCN(CCCCOc2cc3ccccn3n2)CC1 [Example 30, 2-(4-(4-tert-butylpiperidin-1-yl)butoxy)pyrazolo[1,5-a]pyridine hydrochloride] | 0.0062 µM
24 | CN(CCCCOc1cc2ccccn2n1)CCc1ccccc1 [Example 31, N-methyl-N-phenethyl-4-(pyrazolo[1,5-a]pyridin-2-yloxy)butan-1-amine hydrochloride] | 0.021 µM
25 | CN(CCCCOc1cc2ccccn2n1)Cc1ccncc1 [Example 32, N-methyl-4-(pyrazolo[1,5-a]pyridin-2-yloxy)-N-(pyridin-4-ylmethyl)butan-1-amine dihydrochloride] | 0.0145 µM
26 | c1ccn2nc(OCCCCN3CCC4CCCCC4C3)cc2c1 (centres unmarked) [Example 34, 2-(4-(pyrazolo[1,5-a]pyridin-2-yloxy)butyl)decahydroisoquinoline fumarate] | 0.0057 µM
27 | CCCN(CCCCOc1cc2ccccn2n1)CC1CC1 [Example 35, N-(cyclopropylmethyl)-N-propyl-4-(pyrazolo[1,5-a]pyridin-2-yloxy)butan-1-amine maleate] | 0.0106 µM
28 | c1ccc2c(c1)CCN(CCCCOc1cc3ccccn3n1)C2 [Example 36, 2-(4-(pyrazolo[1,5-a]pyridin-2-yloxy)butyl)-1,2,3,4-tetrahydroisoquinoline maleate] | 0.02 µM
29 | c1ccn2nc(OCCCCNC34CC5CC(CC(C5)C3)C4)cc2c1 [Example 37, N-adamantyl-4-(pyrazolo[1,5-a]pyridin-2-yloxy)-butan-1-amine maleate] | 0.0142 µM
30 | CC(C)(C)C1CCN(CCOc2cc3ccccn3n2)CC1 [Example 39, 2-(2-(4-tert-butylpiperidin-1-yl)ethoxy)pyrazolo[1,5-a]pyridine maleate] | 0.00635 µM
31 | CN(CCOc1cc2ccccn2n1)CCc1ccccc1 [Example 40, N-methyl-N-phenethyl-2-(pyrazolo[1,5-a]pyridin-2-yloxy)ethanamine maleate] | 0.0411 µM
32 | CN(CCOc1cc2ccccn2n1)C1CCN(Cc2ccccc2)CC1 [Example 41, 1-benzyl-N-methyl-N-(2-(pyrazolo[1,5-a]pyridin-2-yloxy)ethyl)piperidin-4-amine dimaleate] | 0.0147 µM
33 | c1ccn2nc(OCCN3CCC4CCCCC4C3)cc2c1 (centres unmarked) [Example 42, 2-(2-(pyrazolo[1,5-a]pyridin-2-yloxy)ethyl)decahydroisoquinoline maleate] | 0.0036 µM
34 | CCCN(CCOc1cc2ccccn2n1)CC1CC1 [Example 43, N-(cyclopropylmethyl)-N-(2-(pyrazolo[1,5-a]pyridin-2-yloxy)ethyl)propan-1-amine maleate] | 0.0281 µM
35 | c1ccn2nc(OCCN3CCN(C4CCCCC4)CC3)cc2c1 [Example 47, 2-(2-(4-cyclohexylpiperazin-1-yl)ethoxy)pyrazolo[1,5-a]pyridine dimaleate] | 0.0141 µM
